From PubChem BioAssay (NCI)
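Grown in 96-well plates, cells were treated for 48 hours with each compound at five concentrations. Insufficient inhibition: endpoint recorded as highest concentration tested. Here, GI50 denotes the concentration required for 50% inhibition of growth. TGI denotes the concentration required for complete inhibition of growth.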

Assays:
Experiment in all cases: NCI tumour cell line growth inhibition, 48 h
EKVX NSCLC = tested on: EKVX NSCLC
SF-295 CNS = tested on: SF-295 CNS
K-562 leukemia = tested on: K-562 leukemia
NCI-H226 lung = tested on: NCI-H226 lung
NCI-H522 lung = tested on: NCI-H522 lung
MALME-3M melanoma = tested on: MALME-3M melanoma
T-47D breast = tested on: T-47D breast
U251 CNS = tested on: U251 CNS
SK-MEL-5 melanoma = tested on: SK-MEL-5 melanoma
SK-MEL-2 melanoma = tested on: SK-MEL-2 melanoma
PC-3 prostate = tested on: PC-3 prostate
COLO 205 colon = tested on: COLO 205 colon
786-0 renal = tested on: 786-0 renal
SNB-75 CNS = tested on: SNB-75 CNS
HOP-62 NSCLC = tested on: HOP-62 NSCLC
HT29 colon = tested on: HT29 colon
SF-539 CNS = tested on: SF-539 CNS
MDA-MB-231 breast = tested on: MDA-MB-231 breast
OVCAR-8 ovarian = tested on: OVCAR-8 ovarian
HOP-92 NSCLC = tested on: HOP-92 NSCLC
CAKI-1 renal = tested on: CAKI-1 renal
OVCAR-3 ovarian = tested on: OVCAR-3 ovarian
HCT-116 colon = tested on: HCT-116 colon
MDA-MB-435 = tested on: MDA-MB-435
MOLT-4 leukemia = tested on: MOLT-4 leukemia
HCC-2998 colon = tested on: HCC-2998 colon
CCRF-CEM leukemia = tested on: CCRF-CEM leukemia
OVCAR-5 ovarian = tested on: OVCAR-5 ovarian
A549 NSCLC = tested on: A549 NSCLC
HCT-15 colon = tested on: HCT-15 colon
NCI/ADR-RES ovarian = tested on: NCI/ADR-RES ovarian
M14 melanoma = tested on: M14 melanoma
NCI-H460 lung = tested on: NCI-H460 lung
SN12C renal = tested on: SN12C renal
ACHN renal = tested on: ACHN renal
IGROV1 ovarian = tested on: IGROV1 ovarian
SNB-19 CNS = tested on: SNB-19 CNS
HL-60(TB) leukemia = tested on: HL-60(TB) leukemia
NCI-H23 lung = tested on: NCI-H23 lung
SW-620 colon = tested on: SW-620 colon
UO-31 renal = tested on: UO-31 renal
RXF 393 renal = tested on: RXF 393 renal
TK-10 renal = tested on: TK-10 renal
BT-549 breast = tested on: BT-549 breast
UACC-62 melanoma = tested on: UACC-62 melanoma
MCF7 breast = tested on: MCF7 breast
UACC-257 melanoma = tested on: UACC-257 melanoma
SK-OV-3 ovarian = tested on: SK-OV-3 ovarian
HS 578T breast = tested on: HS 578T breast
SF-268 CNS = tested on: SF-268 CNS
A498 renal = tested on: A498 renal
LOX IMVI melanoma = tested on: LOX IMVI melanoma

In the case of C[C@]12CCc3nc(Nc4cccc(O)c4)sc3C1=CC[C@@H]1[C@@H]2CC[C@]2(C)/C(=N\NC(N)=S)CC[C@@H]12, the GI50 (EKVX NSCLC) was 2.74 µM, the TGI (EKVX NSCLC) was 9.26 µM and the GI50 (SF-295 CNS) was 1.2 µM. For the same compound, the TGI (SF-295 CNS) was 3.11 µM, the GI50 (K-562 leukemia) was 2.15 µM and the TGI (K-562 leukemia) was greater than 100 µM. It also gave a GI50 (NCI-H226 lung) of 5.34 µM, a TGI (NCI-H226 lung) of 80.7 µM and a GI50 (NCI-H522 lung) of 1.7 µM. It also gave a TGI (NCI-H522 lung) of 3.69 µM, a GI50 (MALME-3M melanoma) of 1.6 µM and a TGI (MALME-3M melanoma) of 3.51 µM. The GI50 (T-47D breast) was 1.83 µM, the TGI (T-47D breast) was 4.41 µM and the GI50 (U251 CNS) was 1.15 µM. The TGI (U251 CNS) was 2.96 µM, the GI50 (SK-MEL-5 melanoma) was 1.8 µM and the TGI (SK-MEL-5 melanoma) was 3.63 µM. For the same compound, the GI50 (SK-MEL-2 melanoma) was 2.32 µM, the TGI (SK-MEL-2 melanoma) was 7.36 µM and the GI50 (PC-3 prostate) was 1.7 µM. For the same compound, the TGI (PC-3 prostate) was 6.35 µM, the GI50 (COLO 205 colon) was 1.91 µM and the TGI (COLO 205 colon) was 3.61 µM. The GI50 (786-0 renal) was 1.44 µM, the TGI (786-0 renal) was 4.31 µM and the GI50 (SNB-75 CNS) was 0.792 µM. The TGI (SNB-75 CNS) was 7.01 µM, the GI50 (HOP-62 NSCLC) was 1.86 µM and the TGI (HOP-62 NSCLC) was 4.07 µM. It also gave a GI50 (HT29 colon) of 1.52 µM, a TGI (HT29 colon) of 3.73 µM and a GI50 (SF-539 CNS) of 0.464 µM. For the same compound, the TGI (SF-539 CNS) was 1.84 µM, the GI50 (MDA-MB-231 breast) was 1.75 µM and the TGI (MDA-MB-231 breast) was 4.95 µM. It also gave a GI50 (OVCAR-8 ovarian) of 2.57 µM, a TGI (OVCAR-8 ovarian) of 10.9 µM and a GI50 (HOP-92 NSCLC) of 2.02 µM. For the same compound, the TGI (HOP-92 NSCLC) was 7.6 µM, the GI50 (CAKI-1 renal) was 1.64 µM and the TGI (CAKI-1 renal) was 3.26 µM. For the same compound, the GI50 (OVCAR-3 ovarian) was 1.4 µM, the TGI (OVCAR-3 ovarian) was 2.87 µM and the GI50 (HCT-116 colon) was 1.34 µM. For the same compound, the TGI (HCT-116 colon) was 2.69 µM, the GI50 (MDA-MB-435) was 1.76 µM and the TGI (MDA-MB-435) was 4.55 µM. It also gave a GI50 (MOLT-4 leukemia) of 0.765 µM, a TGI (MOLT-4 leukemia) of 6.9 µM and a GI50 (HCC-2998 colon) of 1.86 µM. The TGI (HCC-2998 colon) was 3.49 µM, the GI50 (CCRF-CEM leukemia) was 1.97 µM and the TGI (CCRF-CEM leukemia) was greater than 100 µM. The GI50 (OVCAR-5 ovarian) was 2.6 µM, the TGI (OVCAR-5 ovarian) was 7.77 µM and the GI50 (A549 NSCLC) was 2.95 µM. The TGI (A549 NSCLC) was 11.4 µM, the GI50 (HCT-15 colon) was 1.15 µM and the TGI (HCT-15 colon) was 2.64 µM. The GI50 (NCI/ADR-RES ovarian) was 3.07 µM, the TGI (NCI/ADR-RES ovarian) was greater than 100 µM and the GI50 (M14 melanoma) was 1.96 µM. It also gave a TGI (M14 melanoma) of 5 µM, a GI50 (NCI-H460 lung) of 1.96 µM and a TGI (NCI-H460 lung) of 4.05 µM. For the same compound, the GI50 (SN12C renal) was 1.98 µM, the TGI (SN12C renal) was 5.31 µM and the GI50 (ACHN renal) was 2.15 µM. It also gave a TGI (ACHN renal) of 6 µM, a GI50 (IGROV1 ovarian) of 2.31 µM and a TGI (IGROV1 ovarian) of 6.25 µM. The GI50 (SNB-19 CNS) was 1.88 µM, the TGI (SNB-19 CNS) was 12.8 µM and the GI50 (HL-60(TB) leukemia) was 2.53 µM. For the same compound, the TGI (HL-60(TB) leukemia) was 8.31 µM, the GI50 (NCI-H23 lung) was 2.78 µM and the TGI (NCI-H23 lung) was 8.96 µM. The GI50 (SW-620 colon) was 1.91 µM, the TGI (SW-620 colon) was 3.8 µM and the GI50 (UO-31 renal) was 1.4 µM. For the same compound, the TGI (UO-31 renal) was 2.83 µM, the GI50 (RXF 393 renal) was 0.574 µM and the TGI (RXF 393 renal) was 2.19 µM. For the same compound, the GI50 (TK-10 renal) was 1.9 µM, the TGI (TK-10 renal) was 4.4 µM and the GI50 (BT-549 breast) was 1.15 µM. The TGI (BT-549 breast) was 3.97 µM, the GI50 (UACC-62 melanoma) was 2.01 µM and the TGI (UACC-62 melanoma) was 4.46 µM. The GI50 (MCF7 breast) was 1.52 µM, the TGI (MCF7 breast) was 3.13 µM and the GI50 (UACC-257 melanoma) was 2.12 µM. The TGI (UACC-257 melanoma) was 6.4 µM, the GI50 (SK-OV-3 ovarian) was 3.21 µM and the TGI (SK-OV-3 ovarian) was 22 µM. It also gave a GI50 (HS 578T breast) of 0.843 µM, a GI50 (SF-268 CNS) of 1.66 µM and a TGI (SF-268 CNS) of 4.45 µM. The GI50 (A498 renal) was 3.01 µM, the TGI (A498 renal) was 15.5 µM and the GI50 (LOX IMVI melanoma) was 1.52 µM. It also gave a TGI (LOX IMVI melanoma) of 2.85 µM.
